Laboratory results published in US20180344702A1, “METHODS FOR TREATING PATIENTS WITH HEMATOLOGIC MALIGNANCIES” (Aptose Biosciences, Inc., priority 2017, published 2018).
One block for each compound: values may come before it.

Legend:
[1] = system: Ba/F3 cells transfected with FLT3 WT; experiment: Cytotoxicity in isogenic transfected Ba/F3 cells (Table 4); assay type: cell-based, Murin; settings: Mus musculus, BaF3; n = 3; read-out: IC50 in Transfected Ba/F3 cells, FLT3 WT
[2] = system: Ba/F3 cells transfected with FLT3 D835Y; experiment: as above; assay type: cell-based, Murin; settings: Mus musculus, BaF3; n = 3; read-out: IC50 in Transfected Ba/F3 cells, FLT3 D835Y
[3] = system: Ba/F3 cells transfected with FLT3 ITD; experiment: as above; assay type: cell-based, Murin; settings: Mus musculus, BaF3; n = 3; read-out: IC50 in Transfected Ba/F3 cells, FLT3 ITD
[4] = system: Ba/F3 cells transfected with FLT3 ITD-D835Y; experiment: as above; assay type: cell-based, Murin; settings: Mus musculus, BaF3; n = 3; read-out: IC50 in Transfected Ba/F3 cells, FLT3 ITD-D835Y
[5] = system: Ba/F3 cells transfected with FLT3 ITD-F691L; experiment: as above; assay type: cell-based, Murin; settings: Mus musculus, BaF3; n = 3; read-out: IC50 in Transfected Ba/F3 cells, FLT3 ITD-F691L
[6] = system: Ba/F3-FLT3 (FLT3-WT); experiment: Antiproliferative activity (Table 6); assay type: cell-based, Murin; settings: Ba/F3-FLT3, FLT3-WT; 48 h (Gilteritinib); read-out: IC50
[7] = system: Ba/F3-ITD (FLT3-ITD); experiment: Antiproliferative activity (Table 6); assay type: cell-based, Murin; settings: Ba/F3-ITD; 48 h (Gilteritinib); read-out: IC50
[8] = system: Ba/F3-D835G (FLT3-D835G); experiment: Antiproliferative activity (Table 6); assay type: cell-based, Murin; settings: Ba/F3-D835G; 48 h (Gilteritinib); read-out: IC50
[9] = system: Ba/F3-D835Y (FLT3-D835Y); experiment: Antiproliferative activity (Table 6); assay type: cell-based, Murin; settings: Ba/F3-D835Y; 48 h (Gilteritinib); read-out: IC50
[10] = system: Ba/F3-ITD + 691 (ITD + F691L); experiment: Antiproliferative activity (Table 6); assay type: cell-based, Murin; settings: Ba/F3-ITD + 691 (ITD + F691L); 48 h (Gilteritinib); read-out: IC50
[11] = system: Ba/F3-ITD + 842 (ITD + Y842C); experiment: Antiproliferative activity (Table 6); assay type: cell-based, Murin; settings: Ba/F3-ITD + 842 (ITD + Y842C); 48 h (Gilteritinib); read-out: IC50
[12] = system: Ba/F3-ITD + D835Y (FLT3-ITD + D835Y); experiment: Antiproliferative activity (Table 6); assay type: cell-based, Murin; settings: Ba/F3-ITD + D835Y; 48 h (Gilteritinib); read-out: IC50
[13] = system: Ba/F3-ITD + D835H (FLT3-ITD + D835H); experiment: Antiproliferative activity (Table 6); assay type: cell-based, Murin; settings: Ba/F3-ITD + D835H; 48 h (Gilteritinib); read-out: IC50
[14] = system: MOLM13 (FLT3-ITD, t(9:11)); experiment: Antiproliferative activity (Table 6); assay type: cell-based; settings: Homo sapiens, MOLM-13; MOLM13; 48 h (Gilteritinib); read-out: IC50
[15] = system: MOLM14 (FLT3-ITD, t(9:11)); experiment: Antiproliferative activity (Table 6); assay type: cell-based; settings: Homo sapiens, MOLM-14; MOLM14; 48 h (Gilteritinib); read-out: IC50
[16] = system: MV4-11 (FLT3-ITD, t(4:11)); experiment: Antiproliferative activity (Table 6); assay type: cell-based; settings: Homo sapiens; MV4-11; 48 h (Gilteritinib); read-out: IC50
[17] = system: THP-1 (FLT3-WT, t(9:11)); experiment: Antiproliferative activity (Table 6); assay type: cell-based; settings: Homo sapiens; THP-1; 48 h (Gilteritinib); read-out: IC50
[18] = system: Kasumi-1 (FLT3-WT); experiment: Antiproliferative activity (Table 6); assay type: cell-based; settings: Homo sapiens; Kasumi-1; 48 h (Gilteritinib); read-out: IC50
[19] = target: BTK WT (Homo sapiens, UniProt Q06187); experiment: Comparative potency against BTK (Table 8); assay type: biochemical; settings: Table 8, wild-type BTK
[20] = target: BTK C481S (Homo sapiens, UniProt Q06187, C481S); experiment: Comparative potency against BTK (Table 8); assay type: biochemical; settings: x printed without key
[21] = target: ITK (Homo sapiens, UniProt Q08881); experiment: Key off-targets (Table 8); assay type: biochemical
ITK, sequence (Q08881 whole entry): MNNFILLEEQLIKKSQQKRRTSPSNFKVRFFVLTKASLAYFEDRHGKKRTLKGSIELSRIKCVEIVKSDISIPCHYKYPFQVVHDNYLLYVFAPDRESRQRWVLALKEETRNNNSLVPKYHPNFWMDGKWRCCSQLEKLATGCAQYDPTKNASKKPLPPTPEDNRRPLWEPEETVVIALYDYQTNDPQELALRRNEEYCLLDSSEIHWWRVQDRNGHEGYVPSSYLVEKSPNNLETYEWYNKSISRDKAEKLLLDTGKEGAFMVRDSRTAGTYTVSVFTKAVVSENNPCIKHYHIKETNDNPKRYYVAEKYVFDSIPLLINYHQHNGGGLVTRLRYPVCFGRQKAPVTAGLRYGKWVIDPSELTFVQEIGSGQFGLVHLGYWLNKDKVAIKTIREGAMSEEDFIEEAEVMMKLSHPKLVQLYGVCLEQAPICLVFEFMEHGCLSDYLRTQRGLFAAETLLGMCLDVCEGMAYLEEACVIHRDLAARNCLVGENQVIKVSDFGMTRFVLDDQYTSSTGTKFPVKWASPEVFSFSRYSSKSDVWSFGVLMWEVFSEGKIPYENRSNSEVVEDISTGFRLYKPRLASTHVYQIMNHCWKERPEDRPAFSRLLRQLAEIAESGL

BTK WT, sequence (Q06187 whole entry): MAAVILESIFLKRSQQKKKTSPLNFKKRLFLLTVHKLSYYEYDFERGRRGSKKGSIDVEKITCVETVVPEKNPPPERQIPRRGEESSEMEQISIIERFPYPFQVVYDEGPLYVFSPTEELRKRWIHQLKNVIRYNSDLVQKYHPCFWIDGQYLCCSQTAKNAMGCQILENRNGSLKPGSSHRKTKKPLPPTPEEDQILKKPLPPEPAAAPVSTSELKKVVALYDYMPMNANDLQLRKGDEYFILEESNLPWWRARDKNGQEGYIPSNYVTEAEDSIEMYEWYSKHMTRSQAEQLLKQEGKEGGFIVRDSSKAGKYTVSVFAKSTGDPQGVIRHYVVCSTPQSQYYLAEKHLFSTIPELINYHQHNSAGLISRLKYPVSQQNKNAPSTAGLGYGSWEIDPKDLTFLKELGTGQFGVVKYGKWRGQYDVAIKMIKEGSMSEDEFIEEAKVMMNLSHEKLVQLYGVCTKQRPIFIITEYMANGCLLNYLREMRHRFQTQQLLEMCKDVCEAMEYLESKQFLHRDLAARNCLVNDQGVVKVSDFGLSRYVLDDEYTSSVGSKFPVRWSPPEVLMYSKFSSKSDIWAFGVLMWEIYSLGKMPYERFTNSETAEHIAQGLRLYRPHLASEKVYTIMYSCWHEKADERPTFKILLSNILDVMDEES
BTK C481S, sequence (Q06187 whole entry C481S): as the sequence (Q06187 whole entry) above, with C481S counted along it

Structure (SMILES): CC1(COc2ccc3c(c2)ncn3-c2ccc3cccc(N4CCC(N)CC4)c3n2)COC1 [Crenolanib]
IC50 [1]: 2620 nM
IC50 [2]: 889 nM
IC50 [3]: 35 nM
IC50 [4]: 31.7 nM
IC50 [5]: 258 nM

IC50 [6]: 79.5 nM
IC50 [7]: 36.2 nM
IC50 [8]: 28.1 nM
IC50 [9]: 373 nM
IC50 [10]: 119 nM
IC50 [11]: 44.7 nM
IC50 [12]: 10.6 nM
IC50 [13]: 10.4 nM
IC50 [14]: 35.8 nM
IC50 [15]: 58.8 nM
IC50 [16]: 176 nM
IC50 [17]: 2300 nM
Structure (SMILES): CCc1nc(C(N)=O)c(Nc2ccc(N3CCC(N4CCN(C)CC4)CC3)c(OC)c2)nc1NC1CCOCC1 [Gilteritinib, reference compound]
IC50 [1]: 500 nM
IC50 [2]: 472 nM
IC50 [3]: 26.5 nM
IC50 [4]: 6.8 nM
IC50 [5]: 98.4 nM
IC50 [18]: 2230 nM

IC50 [19]: 0.4 nM
IC50 [20]: 4.5 nM
IC50 [21]: 49 nM
Structure (SMILES): NC(=O)[C@H]1CCN(c2ncnc(N)c2F)C[C@@H]1N1CCC[C@@H](Nc2cc(Cl)cc(C(F)(F)F)c2)C1=O [SNS-062, reference compound]
